PubChem BioAssay (NCI)
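Briefly, cells in 96-well plates were exposed to five compound concentrations for 48 h, and endpoints were estimated by linear interpolation. Abbreviation: GI50, concentration required for 50% inhibition of growth. TGI: total growth inhibition.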

Assays:
Test in all cases: NCI anticancer screen, dose series, 48 h
[1] = system: EKVX NSCLC
[2] = system: UACC-62 melanoma
[3] = system: 786-0 renal
[4] = system: OVCAR-8 ovarian
[5] = system: KM12 colon
[6] = system: MALME-3M melanoma
[7] = system: UO-31 renal
[8] = system: SK-MEL-5 melanoma
[9] = system: HCC-2998 colon
[10] = system: T-47D breast
[11] = system: U251 CNS
[12] = system: HOP-62 NSCLC
[13] = system: NCI-H522 lung
[14] = system: RXF 393 renal
[15] = system: NCI-H226 lung
[16] = system: TK-10 renal
[17] = system: SK-OV-3 ovarian
[18] = system: HS 578T breast
[19] = system: OVCAR-4 ovarian
[20] = system: SNB-75 CNS
[21] = system: MDA-MB-435
[22] = system: SK-MEL-28 melanoma
[23] = system: HT29 colon
[24] = system: HCT-116 colon
[25] = system: A549 NSCLC
[26] = system: BT-549 breast
[27] = system: SW-620 colon
[28] = system: SNB-19 CNS
[29] = system: MDA-MB-231 breast
[30] = system: A498 renal
[31] = system: M14 melanoma
[32] = system: SF-295 CNS
[33] = system: SK-MEL-2 melanoma
[34] = system: COLO 205 colon
[35] = system: OVCAR-3 ovarian
[36] = system: MCF7 breast
[37] = system: IGROV1 ovarian
[38] = system: UACC-257 melanoma
[39] = system: NCI-H23 lung
[40] = system: SN12C renal
[41] = system: CAKI-1 renal
[42] = system: DU-145 prostate
[43] = system: NCI/ADR-RES ovarian
[44] = system: LOX IMVI melanoma
[45] = system: SF-268 CNS
[46] = system: NCI-H460 lung
[47] = system: CCRF-CEM leukemia
[48] = system: ACHN renal
[49] = system: K-562 leukemia
[50] = system: PC-3 prostate
[51] = system: HOP-92 NSCLC
[52] = system: SF-539 CNS
[53] = system: OVCAR-5 ovarian
[54] = system: HCT-15 colon
[55] = system: RPMI-8226 leukemia

N#CC1(Nc2ccc(Br)cc2)CCCC1
GI50 [1]: 7.27 µM | TGI [1]: > 100 µM | GI50 [2]: 0.427 µM | TGI [2]: > 100 µM | GI50 [3]: 11.3 µM | TGI [3]: > 100 µM | GI50 [4]: 26.5 µM | TGI [4]: > 100 µM | GI50 [5]: 1.86 µM | TGI [5]: > 100 µM | GI50 [6]: 42.6 µM | TGI [6]: > 100 µM | GI50 [7]: 4.69 µM | TGI [7]: > 100 µM | GI50 [8]: 3.05 µM | TGI [8]: > 100 µM | GI50 [9]: 8.3 µM | TGI [9]: > 100 µM | GI50 [10]: 9.39 µM | TGI [10]: > 100 µM | GI50 [11]: 44.5 µM | TGI [11]: > 100 µM | GI50 [12]: > 100 µM | TGI [12]: > 100 µM | GI50 [13]: > 100 µM | TGI [13]: > 100 µM | GI50 [14]: > 100 µM | TGI [14]: > 100 µM | GI50 [15]: > 100 µM | TGI [15]: > 100 µM | GI50 [16]: > 100 µM | TGI [16]: > 100 µM | GI50 [17]: > 100 µM | TGI [17]: > 100 µM | GI50 [18]: > 100 µM | TGI [18]: > 100 µM | GI50 [19]: > 100 µM | TGI [19]: > 100 µM | GI50 [20]: > 100 µM | TGI [20]: > 100 µM | GI50 [21]: 3.78 µM | TGI [21]: > 100 µM | GI50 [22]: > 100 µM | TGI [22]: > 100 µM | GI50 [23]: > 100 µM | TGI [23]: > 100 µM | GI50 [24]: > 100 µM | TGI [24]: > 100 µM | GI50 [25]: 8.15 µM | TGI [25]: > 100 µM | GI50 [26]: 22.2 µM | TGI [26]: > 100 µM | GI50 [27]: 3.22 µM | TGI [27]: > 100 µM | GI50 [28]: > 100 µM | TGI [28]: > 100 µM | GI50 [29]: 3.16 µM | TGI [29]: > 100 µM | GI50 [30]: > 100 µM | TGI [30]: > 100 µM | GI50 [31]: 1.2 µM | TGI [31]: > 100 µM | GI50 [32]: 2.3 µM | TGI [32]: > 100 µM | GI50 [33]: > 100 µM | TGI [33]: > 100 µM | GI50 [34]: > 100 µM | TGI [34]: > 100 µM | GI50 [35]: 96.4 µM | TGI [35]: > 100 µM | GI50 [36]: 9.98 µM | TGI [36]: > 100 µM | GI50 [37]: 75.4 µM | TGI [37]: > 100 µM | GI50 [38]: 31.4 µM | TGI [38]: > 100 µM | GI50 [39]: > 100 µM | TGI [39]: > 100 µM | GI50 [40]: 12.6 µM | TGI [40]: > 100 µM | GI50 [41]: 0.529 µM | TGI [41]: > 100 µM | GI50 [42]: > 100 µM | TGI [42]: > 100 µM | GI50 [43]: 9.2 µM | TGI [43]: > 100 µM | GI50 [44]: 0.543 µM | TGI [44]: > 100 µM | GI50 [45]: > 100 µM | TGI [45]: > 100 µM | GI50 [46]: 1.99 µM | TGI [46]: > 100 µM

C=CCN1C(=O)c2cccc3c(N4CCOCC4)ccc(c23)C1=O
GI50 [1]: 0.0405 µM | TGI [1]: 0.979 µM | GI50 [2]: 0.188 µM | TGI [2]: 0.613 µM | GI50 [3]: 0.263 µM | TGI [3]: 32.7 µM | GI50 [4]: 0.229 µM | TGI [4]: > 100 µM | GI50 [5]: 0.131 µM | TGI [5]: 60.9 µM | GI50 [7]: 0.0134 µM | TGI [7]: 0.322 µM | GI50 [8]: 0.0274 µM | TGI [8]: 0.127 µM | GI50 [47]: 0.0452 µM | TGI [47]: > 100 µM | GI50 [10]: 0.0148 µM | TGI [10]: 11.5 µM | GI50 [11]: 0.0592 µM | TGI [11]: 0.606 µM | GI50 [12]: 0.101 µM | TGI [12]: > 100 µM | GI50 [13]: 0.206 µM | TGI [13]: 12.3 µM | GI50 [48]: 0.113 µM | TGI [48]: > 100 µM | GI50 [14]: 0.0162 µM | TGI [14]: 0.128 µM | GI50 [15]: 0.167 µM | TGI [15]: 1.75 µM | GI50 [16]: 0.0623 µM | TGI [16]: 0.791 µM | GI50 [17]: 0.0498 µM | TGI [17]: 0.667 µM | GI50 [19]: 0.31 µM | TGI [19]: > 100 µM | TGI [20]: 40.6 µM | GI50 [21]: 0.0659 µM | TGI [21]: 22.2 µM | GI50 [22]: 0.0254 µM | TGI [22]: 0.492 µM | GI50 [23]: 0.065 µM | TGI [23]: 11.1 µM | GI50 [24]: 0.0961 µM | TGI [24]: 0.428 µM | GI50 [25]: 0.102 µM | TGI [25]: 0.595 µM | GI50 [49]: 0.202 µM | TGI [49]: > 100 µM | GI50 [50]: 0.128 µM | TGI [50]: 0.748 µM | GI50 [26]: 0.0234 µM | TGI [26]: 0.294 µM | GI50 [27]: 0.249 µM | TGI [27]: 12.5 µM | GI50 [30]: 0.0138 µM | TGI [30]: 0.0421 µM | GI50 [31]: 0.0429 µM | TGI [31]: > 100 µM | TGI [51]: 0.0416 µM | GI50 [33]: 0.146 µM | TGI [33]: 0.675 µM | GI50 [35]: 0.0118 µM | TGI [35]: 0.142 µM | GI50 [37]: 0.0114 µM | TGI [37]: 0.0915 µM | GI50 [38]: 0.0685 µM | TGI [38]: 0.642 µM | GI50 [39]: 0.126 µM | TGI [39]: > 100 µM | GI50 [40]: 0.0796 µM | TGI [40]: > 100 µM | GI50 [42]: 0.0638 µM | TGI [42]: 13.6 µM | GI50 [52]: 0.0293 µM | TGI [52]: 0.376 µM | GI50 [44]: 0.023 µM | TGI [44]: 0.159 µM | GI50 [45]: 0.104 µM | TGI [45]: 0.548 µM | GI50 [46]: 0.272 µM | TGI [46]: 12.7 µM

Cc1ccc(S(=O)(=O)c2ccccc2)cc1
GI50 [1]: 3.87 µM | TGI [1]: > 100 µM | GI50 [2]: 4.61 µM | TGI [2]: > 100 µM | GI50 [3]: 8.08 µM | TGI [3]: > 100 µM | GI50 [4]: 5.77 µM | TGI [4]: > 100 µM | GI50 [5]: 3.45 µM | TGI [5]: 68.5 µM | GI50 [6]: 4.76 µM | TGI [6]: > 100 µM | GI50 [7]: 5.7 µM | TGI [7]: > 100 µM | GI50 [8]: 4.01 µM | TGI [8]: > 100 µM | GI50 [9]: 6.82 µM | TGI [9]: 64.4 µM | GI50 [10]: 6.43 µM | TGI [10]: > 100 µM | GI50 [11]: 4.32 µM | TGI [11]: > 100 µM | GI50 [13]: 1.82 µM | TGI [13]: 4.68 µM | GI50 [48]: 11.7 µM | TGI [48]: > 100 µM | GI50 [14]: 2.62 µM | TGI [14]: 7.54 µM | GI50 [15]: 16.6 µM | TGI [15]: > 100 µM | GI50 [53]: 8.44 µM | TGI [53]: > 100 µM | GI50 [16]: 5.65 µM | TGI [16]: > 100 µM | GI50 [17]: 3.89 µM | TGI [17]: 42.2 µM | GI50 [19]: 22.2 µM | TGI [19]: > 100 µM | GI50 [21]: 0.834 µM | TGI [21]: 5.06 µM | GI50 [22]: 5.65 µM | TGI [22]: > 100 µM | GI50 [23]: 2.7 µM | TGI [23]: 48.9 µM | GI50 [24]: 3.86 µM | TGI [24]: > 100 µM | GI50 [25]: 4.27 µM | TGI [25]: > 100 µM | GI50 [50]: 4.24 µM | TGI [50]: > 100 µM | GI50 [26]: 8.05 µM | TGI [26]: > 100 µM | GI50 [27]: 3.2 µM | TGI [27]: > 100 µM | GI50 [28]: 4.73 µM | TGI [28]: > 100 µM | GI50 [29]: 3.63 µM | TGI [29]: > 100 µM | GI50 [30]: 2.8 µM | TGI [30]: 29.5 µM | GI50 [32]: 2.55 µM | TGI [32]: 9.03 µM | GI50 [51]: 2.62 µM | TGI [51]: 26.2 µM | GI50 [33]: 3.01 µM | TGI [33]: > 100 µM | GI50 [34]: 2.71 µM | TGI [34]: 6.3 µM | GI50 [35]: 2.32 µM | TGI [35]: 5.02 µM | GI50 [36]: 4 µM | TGI [36]: > 100 µM | GI50 [37]: 3.97 µM | TGI [37]: > 100 µM | GI50 [38]: 42 µM | TGI [38]: > 100 µM | GI50 [39]: 6.14 µM | TGI [39]: > 100 µM | GI50 [40]: 5.37 µM | TGI [40]: > 100 µM | GI50 [54]: 4.91 µM | TGI [54]: > 100 µM | GI50 [41]: 2.39 µM | TGI [41]: > 100 µM | GI50 [42]: 2.78 µM | TGI [42]: 7.9 µM | GI50 [52]: 2.55 µM | TGI [52]: 7 µM | GI50 [44]: 5.05 µM | TGI [44]: > 100 µM | GI50 [45]: 5.82 µM | TGI [45]: > 100 µM | GI50 [55]: 3.4 µM | TGI [55]: 9.87 µM | GI50 [46]: 3.26 µM | TGI [46]: 21.1 µM
